Data: patent US10501421B1, “Substituted benzimidazoles as modulators of Ras signaling” (VANDERBILT UNIVERSITY, priority 2017, dated 2019)

Experiments:
[1] = biological target: Ras GEF SOS (Son of Sevenless) (Homo sapiens, UniProt Q07889); experiment: SOS-mediated nucleotide exchange on Ras (BODIPY-GDP fluorescence); assay type: biochemical; details: SOS-mediated exchange of BODIPY-GDP for GTP on Ras
Procedure, shortened: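 Exchange rates were taken from single-exponential fits of the fluorescence time course as BODIPY-GDP on Ras was replaced by GTP. Compound went in first, then GTP and SOS. Mean rates plotted against concentration gave EC50 by four-parameter dose-response fitting.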

Son of Sevenless (SOS) = biological target: T1, Son of Sevenless (SOS) (Homo sapiens, UniProt Q07889); experiment: Binding to SOS, fluorescence polarization anisotropy (FPA) probe displacement; details: displacement of FITC-conjugated probe (Example 285), affinity calculated from IC50
T1 sequence (Q07889 564-1049 limits assumed): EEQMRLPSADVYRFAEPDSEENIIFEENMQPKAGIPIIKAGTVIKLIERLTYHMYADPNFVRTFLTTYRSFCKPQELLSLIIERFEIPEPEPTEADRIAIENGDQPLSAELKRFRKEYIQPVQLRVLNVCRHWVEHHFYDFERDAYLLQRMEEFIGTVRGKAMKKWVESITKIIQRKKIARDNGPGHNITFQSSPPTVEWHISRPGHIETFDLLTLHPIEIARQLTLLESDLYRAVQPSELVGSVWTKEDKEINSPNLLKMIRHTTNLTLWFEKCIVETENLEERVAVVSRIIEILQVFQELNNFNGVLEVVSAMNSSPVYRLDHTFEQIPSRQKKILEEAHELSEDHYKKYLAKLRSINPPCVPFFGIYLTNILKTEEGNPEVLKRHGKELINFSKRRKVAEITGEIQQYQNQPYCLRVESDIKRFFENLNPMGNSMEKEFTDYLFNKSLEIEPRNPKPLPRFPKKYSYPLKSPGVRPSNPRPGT
Procedure, shortened: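 Test compounds were titrated against SOS pre-bound to a fluorescein-labelled probe, with anisotropy plotted versus compound concentration. Binding affinities were derived from IC50 values obtained by four-parameter dose-response fitting.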

Sequence of Ras GEF SOS (Son of Sevenless) (P01112 1-166 partner limits assumed, one chain of several): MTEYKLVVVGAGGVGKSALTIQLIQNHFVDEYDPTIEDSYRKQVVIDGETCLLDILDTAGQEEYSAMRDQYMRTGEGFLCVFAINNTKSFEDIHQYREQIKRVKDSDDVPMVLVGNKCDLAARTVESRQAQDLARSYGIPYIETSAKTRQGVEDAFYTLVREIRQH

SMILES | EC50 [1] [nM] | Ki (Son of Sevenless (SOS)) [nM]
Cc1cc(Cn2c(NCCN)nc3c(N4CCN(C)CC4)cc(Cl)cc32)cc(C)c1F [Example 300, N^1-(6-chloro-1-(4-fluoro-3,5-dimethylbenzyl)-4-(4-methylpiperazin-1-yl)-1H-benzo[d]imidazol-2-yl)ethane-1,2-diamine] | < 1000 | < 500
Cc1cc(Cn2c(NCC3CNC3)nc3c(N4CCN(C)CC4)cc(Cl)cc32)cc(C)c1F [Example 301, N-(azetidin-3-ylmethyl)-6-chloro-1-(4-fluoro-3,5-dimethylbenzyl)-4-(4-methylpiperazin-1-yl)-1H-benzo[d]imidazol-2-amine] | 1000 to 5000 | < 500
Cc1cc(Cn2c(NCC3CNC3)nc3c(C4=CCNCC4)cc(Cl)cc32)cc(C)c1F [Example 302, N-(azetidin-3-ylmethyl)-6-chloro-1-(4-fluoro-3,5-dimethylbenzyl)-4-(1,2,3,6-tetrahydropyridin-4-yl)-1H-benzo[d]imidazol-2-amine] | < 1000 | 500 to 1000
Cc1cc(Cn2c(NCCN)nc3c(C4=CCNCC4)cc(Cl)cc32)cc(C)c1F [Example 303, N^1-(6-chloro-1-(4-fluoro-3,5-dimethylbenzyl)-4-(1,2,3,6-tetrahydropyridin-4-yl)-1H-benzo[d]imidazol-2-yl)ethane-1,2-diamine] | < 1000 | < 500
Cc1cc(Cn2c(N3CCNCC3)nc3c(C4=CCNCC4)cc(Cl)cc32)cc(C)c1F [Example 304, 6-chloro-1-(4-fluoro-3,5-dimethylbenzyl)-2-(piperazin-1-yl)-4-(1,2,3,6-tetrahydropyridin-4-yl)-1H-benzo[d]imidazole] | < 1000 | < 500
Cc1cc(Cn2c(NCC3CNC3)nc3c(-c4ccccc4Cl)cc(Cl)cc32)cc(C)c1F [Example 305, N-(azetidin-3-ylmethyl)-6-chloro-4-(2-chlorophenyl)-1-(4-fluoro-3,5-dimethylbenzyl)-1H-benzo[d]imidazol-2-amine] | < 1000 | < 500
Cc1cc(Cn2c(NCCN)nc3c(-c4ccccc4Cl)cc(Cl)cc32)cc(C)c1F [Example 306, N^1-(6-chloro-4-(2-chlorophenyl)-1-(4-fluoro-3,5-dimethylbenzyl)-1H-benzo[d]imidazol-2-yl)ethane-1,2-diamine] | 1000 to 5000 | < 500
Cc1cc(Cn2c(N3CCNCC3)nc3c(-c4ccccc4Cl)cc(Cl)cc32)cc(C)c1F [Example 307, 6-chloro-4-(2-chlorophenyl)-1-(4-fluoro-3,5-dimethylbenzyl)-2-(piperazin-1-yl)-1H-benzo[d]imidazole] | 1000 to 5000 | < 500
Cc1cc(Cn2c(NCCN)nc3c(-c4ccccc4OC(C)C)cc(Cl)cc32)cc(C)c1F [Example 308, N^1-(6-chloro-1-(4-fluoro-3,5-dimethylbenzyl)-4-(2-isopropoxyphenyl)-1H-benzo[d]imidazol-2-yl)ethane-1,2-diamine] | 1000 to 5000 | < 500
Cc1cc(Cn2c(NCC3CNC3)nc3c(N4CCNCC4)cc(Cl)cc32)cc(C)c1F [Example 309, N-(azetidin-3-ylmethyl)-6-chloro-1-(4-fluoro-3,5-dimethylbenzyl)-4-(piperazin-1-yl)-1H-benzo[d]imidazol-2-amine] | 1000 to 5000 | < 500
Cc1cc(Cn2c(N3CCNCC3)nc3c(CC(=O)O)cc(Cl)cc32)cc(C)c1F [Example 310, 2-(6-chloro-1-(4-fluoro-3,5-dimethylbenzyl)-2-(piperazin-1-yl)-1H-benzo[d]imidazol-4-yl)acetic acid] | < 1000 | 500 to 1000
O=C(O)Cc1cc(Cl)cc2c1nc(N1CCNCC1)n2Cc1ccc(F)c(Cl)c1 [Example 311, 2-(6-chloro-1-(3-chloro-4-fluorobenzyl)-2-(piperazin-1-yl)-1H-benzo[d]imidazol-4-yl)acetic acid] | < 1000 | 1000 to 5000
Cc1cc(Cn2c(N3CCNCC3)nc3c(N4CCOCC4)cc(Cl)cc32)cc(C)c1F [Example 312, 4-(6-chloro-1-(4-fluoro-3,5-dimethylbenzyl)-2-(piperazin-1-yl)-1H-benzo[d]imidazol-4-yl)morpholine] | < 1000 | < 500
Cc1cc(Br)c2nc(NCCN)n(Cc3cc(C)c(F)c(C)c3)c2c1 [Example 313, N^1-(4-bromo-1-(4-fluoro-3,5-dimethylbenzyl)-6-methyl-1H-benzo[d]imidazol-2-yl)ethane-1,2-diamine] | 1000 to 5000 | 1000 to 5000
Cc1cc(OC2CCNCC2)c2nc(N3CCNCC3)n(Cc3cc(C)c(F)c(C)c3)c2c1 [Example 315, 1-(4-fluoro-3,5-dimethylbenzyl)-6-methyl-2-(piperazin-1-yl)-4-(piperidin-4-yloxy)-1H-benzo[d]imidazole] | < 1000 | 1000 to 5000
Cc1cc(OCCN2CCCC2)c2nc(N3CCNCC3)n(Cc3cc(C)c(F)c(C)c3)c2c1 [Example 316, 1-(4-fluoro-3,5-dimethylbenzyl)-6-methyl-2-(piperazin-1-yl)-4-(2-(pyrrolidin-1-yl)ethoxy)-1H-benzo[d]imidazole] | < 1000 | 1000 to 5000
Cc1cc(-c2ccc(CN)cc2)c2nc(N3CCNCC3)n(Cc3cc(C)c(F)c(C)c3)c2c1 [Example 318, (4-(1-(4-fluoro-3,5-dimethylbenzyl)-6-methyl-2-(piperazin-1-yl)-1H-benzo[d]imidazol-4-yl)phenyl)methanamine] | < 1000 | < 500
Cc1cc(Cn2c(N3CCNCC3)nc3c(N4CCC(N)CC4)cc(Cl)cc32)cc(C)c1F [Example 319, 1-(6-chloro-1-(4-fluoro-3,5-dimethylbenzyl)-2-(piperazin-1-yl)-1H-benzo[d]imidazol-4-yl)piperidin-4-amine] | < 1000 | < 500
Cc1cc(OCCN)c2nc(NCCN)n(Cc3cc(C)c(F)c(C)c3)c2c1 [Example 320, N^1-(4-(2-aminoethoxy)-1-(4-fluoro-3,5-dimethylbenzyl)-6-methyl-1H-benzo[d]imidazol-2-yl)ethane-1,2-diamine] | < 1000 | 500 to 1000
Cc1cc(N2CCN(C)CC2)c2nc(N3CCNCC3)n(Cc3cc(C)c(F)c(C)c3)c2c1 [Example 322, 1-(4-fluoro-3,5-dimethylbenzyl)-6-methyl-4-(4-methylpiperazin-1-yl)-2-(piperazin-1-yl)-1H-benzo[d]imidazole] | < 1000 | < 500
Cc1ccc2nc(N3CCNCC3)n(Cc3cc(C)c(F)c(C)c3)c2c1 [Example 323, 1-(4-fluoro-3,5-dimethylbenzyl)-6-methyl-2-(piperazin-1-yl)-1H-benzo[d]imidazole] | < 1000 | 1000 to 5000
Cc1cc(OC2CCNC2)c2nc(N3CCNCC3)n(Cc3cc(C)c(F)c(C)c3)c2c1 (stereo not shown) [Example 327, 1-(4-fluoro-3,5-dimethylbenzyl)-6-methyl-2-(piperazin-1-yl)-4-(pyrrolidin-3-yloxy)-1H-benzo[d]imidazole] | < 1000 | 500 to 1000
Cc1cc(OCC2CCNCC2)c2nc(NCCN)n(Cc3cc(C)c(F)c(C)c3)c2c1 [Example 330, N^1-(1-(4-fluoro-3,5-dimethylbenzyl)-6-methyl-4-(piperidin-4-ylmethoxy)-1H-benzo[d]imidazol-2-yl)ethane-1,2-diamine] | < 1000 | 500 to 1000
